{"source": "patent US11357774B2", "about": "“Use of a quinoline sulfonyl compound for treatment of inflammation, inflammatory disorders, autoimmune disorders and malaria” (priority 2019, dated 2022)", "key": {"[1]": {"tested_on": "cancer over non-cancer cells", "conditions": "in vitro studies; cited from earlier work"}, "[2]": {"tested_on": "IL-8 secretion in THP-1 cells", "test": "IL-8 secretion in TNF-α-stimulated THP-1 cells (ELISA)", "type": "cell-based, human", "conditions": "THP-1, TNF-α 10 ng/mL, 6 hours", "protocol": "For comparison, BTZ (6 nM), CFZ (1 nM), and DEX (2 μM) were also included. *** is p<0.001, which denotes a significant difference from the TNF-α-only group, determined by a Dunnett's test. The values presented are the mean±SEM (n=3).\n(§1) The enzyme-linked immunosorbent assay (ELISA) is a quantitative measurement based on sandwich-based enzyme linking, using a protein-specific capture antibody to determine the levels of single or multiple chemokines and cytokines.\nThe data in FIG. 12 show the levels of IL-8 secreted in the THP-1 culture medium in response to TNF-α alone (10 ng/mL) or in combination with varying concentrations (0.5, 1.0, 2, 4 or 6 μM) of VR23. For comparison, BTZ (6 nM), CFZ (1 nM) and DEX (2 μM) were also included. The measurement time was 6-hour post-stimulation. The measurement was carried out with a single-analyte ELISA."}, "[3]": {"tested_on": "myeloperoxidase (MPO) activity in right lung tissues", "test": "Myeloperoxidase assay in lung tissues of mice with LPS-induced ALI", "type": "in vivo, mouse", "conditions": "LPS 0.4 mg/kg, 24 hours, VR23 30 mg/kg intraperitoneally", "protocol": "Six to eight week old female BALB/c mice strain 028 (Charles River Laboratories, QC, Canada) were fed regularly with laboratory chow and water upon arrival at the Laurentian University Animal Care Facility (Sudbury, ON, Canada). To determine a useful dose of LPS, three mice per group were treated for 24 hours with the following three different conditions: (i) no LPS, (ii) 0.25 mg of LPS per kg of body weight, and (iii) 0.50 mg of LPS per kg of body weight. The different concentrations of LPS were administered intranasally to the three BALB/c mice per concentration. After the animals were sacrificed, the bronchoalveolar lavage fluid (BALF) of each mouse was collected and analyzed for LPS-induced inflammatory responses. […] Experimental design involving the use of VR23 was based on a previous acute lung injury (ALI) instillation by Wei and Huang^26. Briefly, mice were divided into 5 groups, with 3-5 mice per group: no lung injury (i.e., no treat), sham treated, LPS-only, LPS+DEX, and LPS+VR23. […] Bronchoalveolar lavage fluid was collected and the number of cells infiltrated into the bronchoalveolar fluid were counted (FIG. 2). […]\nThe accumulation of neutrophils in the lung tissues was analyzed with a colorimetric MPO assay kit (Sigma Aldrich), which measures the amount of myeloperoxidase activity^26. […] The MPO activity was then determined as per the protocol provided by the supplier. […]"}, "[4]": {"tested_on": "IL-6 secretion in HFLS-RA cells", "test": "IL-6 secretion in stimulated HFLS-RA cells (ELISA)", "type": "cell-based, human", "conditions": "6 hours", "protocol": "(§2) The mean±SEM (n=3) values were determined by a Dunnett's test.\n(§3) The values presented are the mean±SEM (n=2).\nas §1\n(§4) This finding was extended to human cells relevant to autoimmune diseases. Human fibroblast-like synoviocytes (HFLS) are present in the synovial fluid of joint capsules and produce harmful molecules that contribute to joint destruction and the exacerbation of the disease in rheumatoid arthritis patients. […] The cells were then stimulated with IL-1β (FIG. 16) or LPS (FIG. 17), in the absence (control; IL-1β only) or presence of VR23 or HCQ. HCQ was included for comparison because it is often used to treat rheumatoid arthritis. […] For “VR23 only” samples, 5 μM VR23 was used. Fifty thousand HFLS cells per mL were used for the experiment. Cytokine levels in cell culture supernatants were determined by a single-analyte ELISA. […] Fifty thousand HFLS cells per mL were used for the experiment. The cytokine secretion was measured in cell culture supernatants by a single-analyte ELISA."}, "[5]": {"target": "β2 subunit of the proteasome 20S catalytic unit (Homo sapiens, UniProt Q99436)", "conditions": "cited from earlier work"}, "[6]": {"tested_on": "SW-982 synovial cell line", "test": "Sulforhodamine B (SRB) assay, IC50 on SW-982 cells", "type": "cell-based", "conditions": "Homo sapiens, SW982, 48 h", "protocol": "The sulforhodamine B (SRB) assay^21 was used to determine the drug concentration that half of the cell growth/viability is inhibited (IC50). Cells were cultured in 96-well plates, with 5,000 cells in 100 μL of culture medium per well. The rest of the protocol was the same as described previously^22,23.\nData shown in Table 1 are IC50 values of VR23 and other compounds, which were determined using sulforhodamine B (SRB) assays on immunologically relevant cells (THP-1, SW-982 and PBMC). […] Two well-known proteasome inhibitors, BTZ and CFZ, were included for comparison since VR23 is also a proteasome inhibitor, albeit targeting different subunits^2. The widely used anti-inflammatory DEX was included, also for comparison.\nTHP-1, SW982 and PBMC cells (5,000 cells/well) were treated with each compound for 48 hours. The IC50, the drug concentration reducing cell growth/viability by 50%, was determined by a dose-response four-parameter curve (generated with GraphPad Prism V. 4.02) formed by 10 two-fold dilutions (n=3)."}, "[7]": {"tested_on": "IL-6 secretion in HFLS-N cells", "test": "IL-6 secretion in stimulated HFLS-N cells (ELISA)", "type": "cell-based, human", "conditions": "6 hours", "protocol": "as §2, §3, §1, §4"}}}
{"smiles": "O=[N+]([O-])c1ccc(S(=O)(=O)N2CCN(c3ccnc4cc(Cl)ccc34)CC2)c([N+](=O)[O-])c1", "note": "[VR23, 7-chloro-4-(4-(2,4-dinitrophenylsulfonyl)piperazin-1-yl)quinoline]", "values": [{"measurement": "selectivity of cell killing", "setting": "[1]", "result": "preferentially kills cancer over non-cancer cells"}, {"measurement": "level of IL-8", "setting": "[2]; 0.5 μM", "result": "significantly (p<0.001) reduced the level of IL-8"}, {"measurement": "IL-8 secretion", "setting": "[2]; VR23 at IC50 concentration (between 2 and 4 μM), BTZ 6 nM, CFZ 1 nM", "result": "effectively reduces IL-8 secretion"}, {"measurement": "myeloperoxidase (MPO) in lung tissues", "setting": "[3]", "result": "strong inhibitor of MPO"}, {"measurement": "IL-6 secretion, dose dependence", "setting": "[4]; HFLS-RA, IL-1β 10 ng/mL, VR23 2.5-10 μM, HCQ 15 or 30 μM", "result": "decreases in a dose dependent manner"}, {"measurement": "secretion of IL-6", "setting": "[4]; HFLS-RA, LPS 100 ng/mL, 5 or 10 μM", "result": "decreased substantially"}, {"measurement": "level of IL-6 secretion, HFLS-RA versus HFLS-N", "setting": "[4]; IL-1β 10 ng/mL, VR23 5 μM", "result": "reduces the level of IL-6 secretion more effectively on HFLS-RA than HFLS-N"}, {"measurement": "IL-6 reduction, 5 μM VR23 versus 30 μM HCQ", "setting": "[4]; synovial cells from rheumatoid arthritis patients, IL-1β or LPS", "result": "significantly more effective"}, {"measurement": "proteasome inhibition", "setting": "[5]", "result": "strong proteasome inhibitor"}, {"measurement": "IC50", "setting": "[6]", "result": "4.33 ± 0.7", "unit": "µM"}, {"measurement": "IL-6 secretion, dose dependence", "setting": "[7]; IL-1β 10 ng/mL, VR23 2.5-10 μM, HCQ 15 or 30 μM", "result": "decreases in a dose dependent manner"}, {"measurement": "secretion of IL-6", "setting": "[7]; LPS 100 ng/mL", "result": "rate of the decrease is much lower"}]}
